{"source": "patent EP4431111A1", "about": "“PROBIOTIC AS VACCINE IMMUNOADJUVANT” (COREE S.r.l., priority 2023, dated 2024)", "system": "A549 cells", "experiment": "Cytotoxicity, LDH-release assay on A549 cells", "type": "cell-based, human", "settings": "1% Triton X-100, 10 minutes at room temperature, positive control C+ set at 100%", "protocol": "The cytotoxicity of all the conditions tested was evaluated on A549 cells by the LDH activity assay. Cells were seeded in 96 well plate at a density of 3×10^4cells/well: they were leaved at 37°C for 24h and then they were co-cultured with S-protein alone or in the presence of aluminium-based adjuvant or heat-inactivated probiotic strains for 24h. At the end of this incubation period, the release of LDH in the supernatants was evaluated by commercial colorimetric kit following manufacturer's instruction. The control included medium alone used as blank. The spectrophotometric absorbance was measured at 450nm wavelength using a microplate reader."}
{"substance": "Triton X-100", "values": [{"measurement": "release of LDH", "value": "maximal release of LDH"}]}
